How the values were obtained:
[1] = target: cIAP2-BIR3 (Homo sapiens (Human), UniProt Q13489); assay: BIR binding assay (FRET competition), cIAP2 BIR3
Description: (§1) The BIR domain binding assays are FRET based competition assays that utilize His-tagged versions of each of the BIR2 and BIR3 domains from cIAP1, cIAP2, and XIAP (each domain assayed separately) each at a custom optimal concentration and a probe, 200 nM SMAC/DIABLO peptide […] labelled with AlexaFluor647 (part #crb 1110326h, Discovery Peptides). The assay is conducted in 50 mM HEPES, […], 1 mM CHAPS, 5% Glycerol, 1 mM DTT, in dI water with a final pH of 7.4 and final volume of 20 uL. Final protein domain concentrations are: 50 nM cIAP1-BIR3 (Part #APT-11-370 Reaction Biology), 100 nM XIAP-BIR3 (Part #APT-11-351 Reaction Biology), 200 nM XIAP-BIR2 (Part #APT-11-470 Reaction Biology), 325 nM cIAP2-BIR2 (Part #APT-11-489 Reaction Biology), 50 nM cIAP2-BIR3 (Part #APT-11-372 Reaction Biology), 325 nM cIAP1-BIR2 (Part #APT-11-487 Reaction Biology). Compounds were plated using a HP Tecan D300 printer in a final total volume of 202 nl and DMSO concentration normalized across the 15-point, 3-fold dilution series. Peptide and probe were prepared at 2× relative to the concentrations above in binding buffer, 10 uL added to the prepared compound plates, and incubated for 60 minutes. LANCE Eu-W1024 (part #AD0401 Perkin Elmer #, vendor) was prepared at 2× concentration in binding buffer for final concentration of 2 nM, 10 uL added to each well, and plates incubated for 30 minutes. Plates were read on an ENVISION multifunction plate reader with […] laser excitation to obtain the 615 nm/665 nm emission ratio as indicative of probe:protein proximity. Data was analyzed using GraphPad PRISM and curves fit using log(inhibitor) vs. response—Variable slope (four […] method to obtain IC50 and pIC50 values.

[2] = tested on: Jurkat HIV-luciferase clones; assay: Jurkat latency reversal assay; format: cell-based; settings: Homo sapiens, 48 h; Jurkat latency reversal assay potency; read-out: Jurkat pEC50 (converted)
Description: Jurkat HIV-luciferase clones were maintained in RPMI medium 1640 (Gibco by Life Technologies) containing 10% (vol/vol) fetal bovine serum (SAFC/Sigma-Aldrich) and 25 units/mL penicillin, 25 units/mL streptomycin (Gibco by Life Technologies), and were split 1:4 every 3 to 4 days to maintain a cell density of ˜0.3 to 1 million cells/mL. The Jurkat clones were maintained with the addition of 500 nM EFV in the medium. Three Jurkat cell clones (C16, 115, and N6), each harboring one or two integrated HIV proviruses expressing the luciferase reporter gene, were added at equal amounts for a total of 5,000 cells per well to 384-well plates containing compound titrations. Dose-response testing was performed on compounds dissolved in dimethyl sulfoxide (DMSO; Fisher Scientific, Merelbeke, Belgium) dispensed in duplicate serial 3-fold, 14-point titrations using a D300e Digital Droplet Dispenser (Hewlett-Packard) to give final assay concentrations of 10 μM to […] in 50 μL of medium at 0.5% DMSO (vol/vol) final concentration. Cells and compound were incubated at 37° C. for 48 hours, unless otherwise indicated, followed by the addition of 20 μL of Steady-Glo® Luciferase (Promega). Luminescence resulting from the induction of the virally expressed luciferase was measured using an EnVision 2102 Multilabel Plate Reader (Perkin Elmer). Dose-response relationships were analyzed with GraphPad PRISM 6 using a four-parameter logistic regression model to calculate the concentration of compound that gives half-maximal response (EC50) and the maximal percent activation compared to the vehicle control.

[3] = target: cIAP1-BIR2 (Homo sapiens (Human), UniProt Q13490); assay: BIR binding assay (FRET competition), cIAP1 BIR2
Description: as §1

[4] = target: XIAP-BIR3 (Homo sapiens (Human), UniProt P98170); assay: BIR binding assay (FRET competition), XIAP BIR3
Description: as §1

[5] = target: cIAP1-BIR3 (Homo sapiens (Human), UniProt Q13490); assay: BIR binding assay (FRET competition), cIAP1 BIR3; settings: for cIAP1 BIR3 vs BIR2 separation window: fold separation (FS) for cIAP1
Description: as §1

Sequence of cIAP1-BIR2 (Q13490 173-257): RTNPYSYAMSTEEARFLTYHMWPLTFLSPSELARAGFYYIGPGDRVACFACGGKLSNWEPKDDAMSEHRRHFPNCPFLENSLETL
Sequence of cIAP1-BIR3 (Q13490 253-363): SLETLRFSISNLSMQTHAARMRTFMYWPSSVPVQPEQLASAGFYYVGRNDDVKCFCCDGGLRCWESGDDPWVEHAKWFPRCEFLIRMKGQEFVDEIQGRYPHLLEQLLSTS
Sequence of XIAP-BIR3 (P98170 241-356): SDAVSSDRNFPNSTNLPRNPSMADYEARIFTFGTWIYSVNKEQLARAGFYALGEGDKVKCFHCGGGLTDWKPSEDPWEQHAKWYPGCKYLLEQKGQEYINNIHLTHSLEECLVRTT
Sequence of cIAP2-BIR3 (Q13489 238-349): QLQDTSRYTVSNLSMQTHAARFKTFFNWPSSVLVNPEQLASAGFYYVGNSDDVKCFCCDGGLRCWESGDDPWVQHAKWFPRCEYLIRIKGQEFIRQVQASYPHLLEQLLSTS

## C[C@@H]1CN(CC(=O)N2CC(C)(C)c3ncc(Cc4ccc(Cl)cc4)cc32)[C@@H](CN2CCO[C@H](COc3cccc(OC[C@@H]4CN(C[C@H]5CN[C@H](C)CN5CC(=O)N5CC(C)(C)c6ncc(Cc7ccc(Cl)cc7)cc65)CCO4)c3)C2)CN1 [Compound 147]
[1]
  IC50: 0.0158 to 0.0316 µM
[2]
  EC50: 0.0126 to 0.0631 µM
[3]
  IC50: 3.16 to 10 µM
[4]
  IC50: 0.0316 to 0.501 µM
[5]
  IC50: 0.0158 to 0.0316 µM
  cIAP1 BIR3 vs BIR2 separation window: +++ (10,000>FS>1,000)

## Cc1ccc(Cc2cnc3c(c2)N(C(=O)CN2C[C@@H](C)NC[C@@H]2CN2CCO[C@H](COc4cccc(OC[C@@H]5CN(C[C@H]6CN[C@H](C)CN6CC(=O)N6CC(C)(C)c7ncc(Cc8ccc(C)cc8)cc76)CCO5)c4)C2)CC3(C)C)cc1 [Compound 148]
[1]
  IC50: 0.0158 to 0.0316 µM
[2]
  EC50: 0.0126 to 0.0631 µM
[3]
  IC50: 10 to 51.3 µM
[4]
  IC50: 0.0316 to 0.501 µM
[5]
  IC50: 0.0158 to 0.0316 µM
  cIAP1 BIR3 vs BIR2 separation window: ++++ (FS>10,000)

## C[C@@H]1CN(CC(=O)N2CC(C)(C)c3ncc(Cc4ccc(C(F)(F)F)cc4)cc32)[C@@H](CN2CCO[C@H](COc3cccc(OC[C@@H]4CN(C[C@H]5CN[C@H](C)CN5CC(=O)N5CC(C)(C)c6ncc(Cc7ccc(C(F)(F)F)cc7)cc65)CCO4)c3)C2)CN1 [Compound 149]
[1]
  IC50: 0.0316 to 0.501 µM
[2]
  EC50: 0.0631 to 0.316 µM
[3]
  IC50: 10 to 51.3 µM
[4]
  IC50: 0.0316 to 0.501 µM
[5]
  IC50: 0.0316 to 0.501 µM
  cIAP1 BIR3 vs BIR2 separation window: +++ (10,000>FS>1,000)

## C[C@@H]1CN(CC(=O)N2CC(C)(C)c3ncc(Cc4ccc(Br)cc4)cc32)[C@@H](CN2CCO[C@H](COc3cccc(OC[C@@H]4CN(C[C@H]5CN[C@H](C)CN5CC(=O)N5CC(C)(C)c6ncc(Cc7ccc(Br)cc7)cc65)CCO4)c3)C2)CN1 [Compound 153]
[1]
  IC50: 0.0316 to 0.501 µM
[2]
  EC50: 0.0631 to 0.316 µM
[3]
  IC50: 10 to 51.3 µM
[4]
  IC50: 0.0316 to 0.501 µM
[5]
  IC50: 0.0316 to 0.501 µM
  cIAP1 BIR3 vs BIR2 separation window: +++ (10,000>FS>1,000)

## C[C@@H]1CN(CC(=O)N2CC(C)(C)c3ncc(Cc4ccc(F)cc4)cc32)[C@@H](CN2CCN(S(=O)(=O)c3cccc(S(=O)(=O)N4CCN(C[C@H]5CN[C@H](C)CN5CC(=O)N5CC(C)(C)c6ncc(Cc7ccc(F)cc7)cc65)[C@H](C)C4)c3)C[C@H]2C)CN1 [Example 36, 2,2′-((3R,3′R,6R,6′R)-(((2R,2′R)-(1,3-phenylenedisulfonyl)bis(2-methylpiperazine-4,1-diyl))bis(methylene))bis(3-methylpiperazine-6,1-diyl))bis(1-(6-(4-fluorobenzyl)-3,3-dimethyl-2,3-dihydro-1H-pyrrolo[3,2-b]pyridin-1-yl)ethan-1-one)]
[1]
  IC50: 0.0158 to 0.0316 µM
[2]
  EC50: 0.00049 to 0.0126 µM
[3]
  IC50: 3.16 to 10 µM
[4]
  IC50: 0.0316 to 0.501 µM
[5]
  IC50: 0.0158 to 0.0316 µM
  cIAP1 BIR3 vs BIR2 separation window: +++ (10,000>FS>1,000)

## C[C@@H]1CN(CC(=O)N2CC(C)(C)c3[nH]c(=O)c(Cc4ccc(F)cc4)cc32)[C@@H](CN2CCC[C@@H](NC(=O)CCCCCCCCCCCCC(=O)N[C@@H]3CCCN(C[C@H]4CN[C@H](C)CN4CC(=O)N4CC(C)(C)c5[nH]c(=O)c(Cc6ccc(F)cc6)cc54)C3)C2)CN1 [Example 46, N1,N^14-bis((R)-1-(((2R,5R)-1-(2-(6-(4-fluorobenzyl)-3,3-dimethyl-5-oxo-2,3,4,5-tetrahydro-1H-pyrrolo[3,2-b]pyridin-1-yl)-2-oxoethyl)-5-methylpiperazin-2-yl)methyl)piperidin-3-yl)tetradecanediamide]
[1]; FRET competition binding
  cIAP2 BIR3 (pIC50): ++ (7.80>pIC50>=7.50)
[2]
  EC50: 0.0631 to 0.316 µM
[3]
  IC50: 3.16 to 10 µM
[4]; FRET competition binding
  XIAP BIR3 (pIC50): + (7.50>pIC50>=6.30)
[5]; FRET competition binding
  cIAP1 BIR3 (pIC50): ++ (7.80>pIC50>=7.50)
[5]
  cIAP1 BIR3 vs BIR2 separation window: +++ (10,000>FS>1,000)

## C[C@@H]1CN(CC(=O)N2CC(C)(C)c3[nH]c(=O)c(Cc4ccc(F)cc4)cc32)[C@@H](CN2CCO[C@H](COc3ccc(S(=O)(=O)c4ccc(OC[C@@H]5CN(C[C@H]6CN[C@H](C)CN6CC(=O)N6CC(C)(C)c7[nH]c(=O)c(Cc8ccc(F)cc8)cc76)CCO5)cc4)cc3)C2)CN1 [Example 57, 1,1′-(2,2′-((3R,3′R,6R,6′R)-(((2S,2'S)-(((sulfonylbis(4,1-phenylene))bis(oxy))bis(methylene))bis(morpholine-2,4-diyl))bis(methylene))bis(3-methylpiperazine-6,1-diyl))bis(acetyl))bis(6-(4-fluorobenzyl)-3,3-dimethyl-1,2,3,4-tetrahydro-5H-pyrrolo[3,2-b]pyridin-5-one)]
[1]
  IC50: 0.0158 to 0.0316 µM
[2]
  EC50: 0.0126 to 0.0631 µM
[4]
  IC50: 0.0316 to 0.501 µM
[5]
  IC50: 0.0316 to 0.501 µM

## C[C@@H]1CN(CC(=O)N2CC(C)(C)c3[nH]c(=O)c(Cc4ccc(F)cc4)cc32)[C@@H](CN2CCO[C@H](COc3ccc(CCc4ccc(OC[C@@H]5CN(C[C@H]6CN[C@H](C)CN6CC(=O)N6CC(C)(C)c7[nH]c(=O)c(Cc8ccc(F)cc8)cc76)CCO5)cc4)cc3)C2)CN1 [Example 58, 1,1′-(2,2′-((3R,3′R,6R,6′R)-(((2S,2'S)-(((ethane-1,2-diylbis(4,1-phenylene))bis(oxy))bis(methylene))bis(morpholine-2,4-diyl))bis(methylene))bis(3-methylpiperazine-6,1-diyl))bis(acetyl))bis(6-(4-fluorobenzyl)-3,3-dimethyl-1,2,3,4-tetrahydro-5H-pyrrolo[3,2-b]pyridin-5-one)]
[1]
  IC50: 0.00794 to 0.0158 µM
[2]
  EC50: 0.0126 to 0.0631 µM
[4]
  IC50: 0.0158 to 0.0316 µM
[5]
  IC50: 0.0158 to 0.0316 µM

## C[C@@H]1CN(CC(=O)N2CC(C)(C)c3[nH]c(=O)c(Cc4ccc(F)cc4)cc32)[C@@H](CN2CCO[C@H](COc3ccc(C(C)(C)c4ccc(C(C)(C)c5ccc(OC[C@@H]6CN(C[C@H]7CN[C@H](C)CN7CC(=O)N7CC(C)(C)c8[nH]c(=O)c(Cc9ccc(F)cc9)cc87)CCO6)cc5)cc4)cc3)C2)CN1 [Example 62, 1,1′-(2,2′-((3R,3′R,6R,6′R)-(((2S,2'S)-((((1,4-phenylenebis(propane-2,2-diyl))bis(4,1-phenylene))bis(oxy))bis(methylene))bis(morpholine-2,4-diyl))bis(methylene))bis(3-methylpiperazine-6,1-diyl))bis(acetyl))bis(6-(4-fluorobenzyl)-3,3-dimethyl-1,2,3,4-tetrahydro-5H-pyrrolo[3,2-b]pyridin-5-one)]
[1]
  IC50: 0.0316 to 0.501 µM
[2]
  EC50: 0.0126 to 0.0631 µM
[4]
  IC50: 0.0316 to 0.501 µM
[5]
  IC50: 0.0316 to 0.501 µM

## C[C@@H]1CN(CC(=O)N2CC(C)(C)c3[nH]c(=O)c(Cc4ccc(F)cc4)cc32)[C@@H](CN2CCC(CCCC3CCN(C[C@H]4CN[C@H](C)CN4CC(=O)N4CC(C)(C)c5[nH]c(=O)c(Cc6ccc(F)cc6)cc54)CC3)CC2)CN1 [Example 94, 1,1′-(2,2′-((3R,3′R,6R,6′R)-((propane-1,3-diylbis(piperidine-4,1-diyl))bis(methylene))bis(3-methylpiperazine-6,1-diyl))bis(acetyl))bis(6-(4-fluorobenzyl)-3,3-dimethyl-1,2,3,4-tetrahydro-5H-pyrrolo[3,2-b]pyridin-5-one)]
[1]
  IC50: 0.00794 to 0.0158 µM
[2]
  EC50: 0.00049 to 0.0126 µM
[4]
  IC50: 0.0158 to 0.0316 µM
[5]
  IC50: 0.00794 to 0.0158 µM
